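All cell lines were grown in 96-well plates and treated with compound for 48 hours. Here, GI50 denotes the concentration required for 50% inhibition of growth.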 Calls of active or inactive are those of the source. No stated cut-off is given here; in the data, active = GI50 up to about 1.1 µM and inactive = higher.
How the values were obtained:
Test in all cases: NCI tumour cell line growth inhibition, 48 h
[1] = system: OVCAR-5
[2] = system: SK-MEL-5
[3] = system: PC-3
[4] = system: SF-295
[5] = system: DU-145
[6] = system: SNB-19
[7] = system: SNB-75
[8] = system: SK-OV-3
[9] = system: SF-268
[10] = system: T47D
[11] = system: OVCAR-8
[12] = system: NCI-H23
[13] = system: RXF 393
[14] = system: Malme-3M
[15] = system: MCF7
[16] = system: U-251
[17] = system: SN12C
[18] = system: UACC-257
[19] = system: SK-MEL-2
[20] = system: OVCAR-4
[21] = system: K562
[22] = system: LOX IMVI
[23] = system: 786-0
[24] = system: EKVX
[25] = system: SF-539
[26] = system: HCT-116
[27] = system: HOP-62
[28] = system: M14
[29] = system: COLO 205
[30] = system: SK-MEL-28
[31] = system: SW-620
[32] = system: UO-31
[33] = system: MDA-N
[34] = system: TK-10
[35] = system: MDA-MB-435
[36] = system: ACHN
[37] = system: SR
[38] = system: HT-29
[39] = system: KM12
[40] = system: OVCAR-3
[41] = system: HCT-15
[42] = system: HL-60
[43] = system: NCI-H522
[44] = system: HCC 2998
[45] = system: NCI/ADR-RES
[46] = system: A549
[47] = system: MDA-MB-231
[48] = system: RPMI-8226
[49] = system: NCI-H460
[50] = system: NCI-H226
[51] = system: Hs-578T
[52] = system: UACC-62
[53] = system: IGROV-1
[54] = system: CCRF-CEM
[55] = system: MOLT-4
[56] = system: HOP-92

For `CCn1c(=O)c2nc(SC)sc2n(-c2ccccc2)c1=S`, which GI50 [1] is on record?
The GI50 was > 100 µM (inactive).

What about the GI50 [2] of the same compound?
The GI50 was 39.4 µM (inactive).

And the GI50 [3]?
The GI50 was 30.7 µM (inactive).

What about the GI50 [4] of the same compound?
Its GI50 is > 100 µM (inactive).

What about the GI50 [5] of the same compound?
Its GI50 is > 100 µM (inactive).

And the GI50 [6]?
The GI50 was 89.1 µM (inactive).

What about the GI50 [7] of the same compound?
The GI50 was 91.2 µM (inactive).

What about the GI50 [8] of the same compound?
Its GI50 is 94.6 µM (inactive).

And the GI50 [9]?
The GI50 was > 100 µM (inactive).

And the GI50 [10]?
Its GI50 is 55.7 µM (inactive).

And the GI50 [11]?
The GI50 was 68.7 µM (inactive).

What about the GI50 [12] of the same compound?
The GI50 was 46.8 µM (inactive).

What about the GI50 [13] of the same compound?
Its GI50 is 67.3 µM (inactive).

And the GI50 [14]?
Its GI50 is > 100 µM (inactive).

And the GI50 [15]?
The GI50 was 76.4 µM (inactive).

What about the GI50 [16] of the same compound?
The GI50 was > 100 µM (inactive).

And the GI50 [17]?
Its GI50 is 86.9 µM (inactive).

What about the GI50 [18] of the same compound?
Its GI50 is > 100 µM (inactive).

And the GI50 [19]?
Its GI50 is 28.6 µM (inactive).

What about the GI50 [20] of the same compound?
Its GI50 is > 100 µM (inactive).

What about the GI50 [21] of the same compound?
Its GI50 is 11.3 µM (inactive).

What about the GI50 [22] of the same compound?
The GI50 was 42.5 µM (inactive).

What about the GI50 [23] of the same compound?
Its GI50 is > 100 µM (inactive).

What about the GI50 [24] of the same compound?
The GI50 was > 100 µM (inactive).

And the GI50 [25]?
Its GI50 is 69.2 µM (inactive).

What about the GI50 [26] of the same compound?
Its GI50 is 58.7 µM (inactive).

And the GI50 [27]?
Its GI50 is > 100 µM (inactive).

What about the GI50 [28] of the same compound?
The GI50 was 65.3 µM (inactive).

And the GI50 [29]?
Its GI50 is > 10 µM (inactive).

And the GI50 [30]?
Its GI50 is > 100 µM (inactive).

What about the GI50 [31] of the same compound?
The GI50 was 93.1 µM (inactive).

What about the GI50 [32] of the same compound?
Its GI50 is 16.6 µM (inactive).

What about the GI50 [33] of the same compound?
The GI50 was 47.2 µM (inactive).

And the GI50 [34]?
The GI50 was > 100 µM (inactive).

And the GI50 [35]?
The GI50 was 46.7 µM (inactive).

And the GI50 [36]?
Its GI50 is 43.9 µM (inactive).

What about the GI50 [37] of the same compound?
The GI50 was > 100 µM (inactive).

What about the GI50 [38] of the same compound?
The GI50 was 47.2 µM (inactive).

And the GI50 [39]?
The GI50 was 49.9 µM (inactive).

And the GI50 [40]?
The GI50 was 68.5 µM (inactive).

What about the GI50 [41] of the same compound?
Its GI50 is 79.4 µM.

And the GI50 [42]?
The GI50 was 3.08 µM (inactive).

What about the GI50 [43] of the same compound?
Its GI50 is 79.3 µM (inactive).

What about the GI50 [44] of the same compound?
Its GI50 is > 100 µM (inactive).

What about the GI50 [45] of the same compound?
The GI50 was 44.5 µM (inactive).

What about the GI50 [46] of the same compound?
The GI50 was 98.9 µM (inactive).

And the GI50 [47]?
Its GI50 is > 100 µM (inactive).

And the GI50 [48]?
The GI50 was 74.6 µM (inactive).

And the GI50 [49]?
The GI50 was 37.8 µM (inactive).

What about the GI50 [50] of the same compound?
Its GI50 is 41 µM (inactive).

What about the GI50 [51] of the same compound?
The GI50 was 40.3 µM (inactive).

And the GI50 [52]?
The GI50 was 38 µM (inactive).

What about the GI50 [53] of the same compound?
Its GI50 is > 100 µM (inactive).

What about the GI50 [54] of the same compound?
The GI50 was 19.6 µM (inactive).

What about the GI50 [55] of the same compound?
The GI50 was 31.6 µM (inactive).

And the GI50 [56]?
Its GI50 is 55.5 µM (inactive).

— ChEMBL document CHEMBL1201862, “PubChem BioAssay data set” (2004)
